Test results published in patent US8822698B2, “Aminoacid derivatives, their process of preparation and their therapeutical uses as inhibitors of oncogenic signals by the Met family” (Universite D'Aix-Marseille, priority 2009, dated 2014).
Entries after “also recorded” stand apart in the source; their conditions may differ.

Columns and labels:
GTL-16 cells = experiment: Soft agar anchorage-independent growth (in vitro tumorigenesis), GTL-16; type: cell-based, human
Protocol: MDCK cells were grown in Dulbecco's modified Eagle's medium (DMEM) (Gibco BRL) containing 4 mM L-glutamine and supplemented with 2% (v/v) foetal bovine serum (Gibco BRL), 100 U/mL penicillin, and 100 μg/mL streptomycin. Cells were plated at a density of 1000 cells per well in 24-well microplates and allowed to settle overnight at 37° C. in a humidified atmosphere of 5% CO2 prior to treatments. MCF10A human breast cells, MDA-MB231 human breast cancer cells, GTL-16 human gastric carcinoma cells, HepG2 human hepatocellular carcinoma cells, U-87 human glioblastoma-astrocytoma cells and LLC Lewis lung carcinoma cells were grown in RPMI medium (Gibco BRL) containing 4 mM L-glutamine and supplemented with 2% (v/v) foetal bovine serum (Gibco BRL), 100 U/mL penicillin, and 100 μg/mL streptomycin and kept at 37° C. in a humidified atmosphere of 5% CO2.
For scattering assays, MDCK cells were pre-incubated with compounds for 2 hours at 0.1-100 μM concentrations at 37° C. in a humidified atmosphere of 5% CO2, followed by 24 hr stimulation with 20 ng/ml HGF (R&D Systems), as previously described (Patane et al., Biochem Biophys Res Commun 375, 184-189, 2008). The cells were further incubated at 37° C. in an atmosphere of 5% CO2 for 24-48 hours, washed with phosphate-buffered saline (PBS; Gibco BRL), and fixed in PFA (Sigma). The quantification of scattering response was performed by counting the number of cells with scattered morphology in 30 independent colonies. The […] corresponds to the concentration of compounds leading to a 50% inhibition of Met-triggered cell scattering. Active compounds were assayed to impair scattering response also on human breast MCF10A cells following the same procedure. For survival assays, GTL-16, HepG2 and U-87 cells were cultured in serum-free media for 24 hours prior to compound addition for 48 hours. Viability was assessed with the Cell Titer Glo Luminescent Assay (Promega). For in vitro tumorigenesis, soft agar growth assays were preformed using GTL-16, HepG2, and U-87 cells, as previously described (Patane et al., Cancer Res 66, 4750-4757, 2006). […]

HCT-116 = experiment: NCI 60 human tumour cell line screen; type: cell-based; details: conc. 10^−5M; HCT-116, Colon Cancer
Excerpt: (§1) Compound of example 4 was screened in the NCI 60 human tumour cell line anticancer drug screen (Shoemaker et al Nature reviews 6, 2006, 813-823).

SN12C = experiment: NCI 60 human tumour cell line screen; type: cell-based; details: conc. 10^−5M, Renal Cancer
Excerpt: as §1

RXF 393 = experiment: NCI 60 human tumour cell line screen; type: cell-based; details: conc. 10^−5M; RXF 393, Renal Cancer
Excerpt: as §1

SK-MEL-28 = experiment: NCI 60 human tumour cell line screen; type: cell-based; details: conc. 10^−5M; SK-MEL-28, Melanoma
Excerpt: as §1

SF-295 = experiment: NCI 60 human tumour cell line screen; type: cell-based; details: conc. 10^−5M; SF-295, CNS Cancer
Excerpt: as §1

HT29 = experiment: NCI 60 human tumour cell line screen; type: cell-based; details: conc. 10^−5M; HT29, Colon Cancer
Excerpt: as §1

HOP-92 = experiment: NCI 60 human tumour cell line screen; type: cell-based; details: conc. 10^−5M; HOP-92, Non-Small Cell Lung Cancer
Excerpt: as §1

SF-268 = experiment: NCI 60 human tumour cell line screen; type: cell-based; details: conc. 10^−5M; SF-268, CNS Cancer
Excerpt: as §1

786-0 = experiment: NCI 60 human tumour cell line screen; type: cell-based; details: conc. 10^−5M; 786-0, Renal Cancer
Excerpt: as §1

DU-145 = experiment: NCI 60 human tumour cell line screen; type: cell-based; details: conc. 10^−5M; DU-145, Prostate Cancer
Excerpt: as §1

MDA-MB-435 = experiment: NCI 60 human tumour cell line screen; type: cell-based; details: conc. 10^−5M; MDA-MB-435, Melanoma
Excerpt: as §1

EKVX = experiment: NCI 60 human tumour cell line screen; type: cell-based; details: conc. 10^−5M, Non-Small Cell Lung Cancer
Excerpt: as §1

TK-10 = experiment: NCI 60 human tumour cell line screen; type: cell-based; details: conc. 10^−5M; TK-10, Renal Cancer
Excerpt: as §1

HOP-62 = experiment: NCI 60 human tumour cell line screen; type: cell-based; details: conc. 10^−5M; HOP-62, Non-Small Cell Lung Cancer
Excerpt: as §1

SF-539 = experiment: NCI 60 human tumour cell line screen; type: cell-based; details: conc. 10^−5M; SF-539, CNS Cancer
Excerpt: as §1

CCRF-CEM = experiment: NCI 60 human tumour cell line screen; type: cell-based; details: conc. 10^−5M, Leukemia
Excerpt: as §1

COLO 205 = experiment: NCI 60 human tumour cell line screen; type: cell-based; details: conc. 10^−5M; COLO 205, Colon Cancer
Excerpt: as §1

UACC-257 = experiment: NCI 60 human tumour cell line screen; type: cell-based; details: conc. 10^−5M; UACC-257, Melanoma
Excerpt: as §1

HCC-2998 = experiment: NCI 60 human tumour cell line screen; type: cell-based; details: conc. 10^−5M; HCC-2998, Colon Cancer
Excerpt: as §1

NCl-H460 = experiment: NCI 60 human tumour cell line screen; type: cell-based; details: conc. 10^−5M; NCl-H460, Non-Small Cell Lung Cancer
Excerpt: as §1

IGROV 1 = experiment: NCI 60 human tumour cell line screen; type: cell-based; details: conc. 10^−5M; IGROV 1, Ovarian Cancer
Excerpt: as §1

SNB-75 = experiment: NCI 60 human tumour cell line screen; type: cell-based; details: conc. 10^−5M; SNB-75, CNS Cancer
Excerpt: as §1

## O=C(Cc1cc(C(F)(F)F)cc(C(F)(F)F)c1)N[C@@H](Cc1ccccc1)C(=O)Nc1ccc(-c2cn3c(n2)sc2ccccc23)cc1 [Example 4, (S)-2-(3,5-bis(trifluoromethyl)phenylacetamido)-3-phenyl-N-[4-(imidazo[2,1-b]benzothiazol-2-yl)phenyl]propanamide]
GTL-16 cells; GTL-16 cells, dose dependent, listed as XVI
  Met-triggered anchorage-independent growth: severely reduced; also recorded: severely affected
GTL-16 cells; Homo sapiens, soft agar growth, GTL-16
  IC50: 811 nM
HCT-116
  Growth Percent: 21.40%
SN12C
  Growth Percent: 47.40%
RXF 393
  Growth Percent: 47.02%
SK-MEL-28
  Growth Percent: 26.28%
SF-295
  Growth Percent: 42.18%
HT29
  Growth Percent: 18.28%
HOP-92
  Growth Percent: 71.89%
SF-268
  Growth Percent: 29.28%
786-0
  Growth Percent: 60.35%
DU-145
  Growth Percent: 70.37%
MDA-MB-435
  Growth Percent: 54.92%
EKVX
  Growth Percent: 15.48%
TK-10
  Growth Percent: 61.11%
HOP-62
  Growth Percent: 80.02%
SF-539
  Growth Percent: 36.76%
CCRF-CEM
  Growth Percent: 32.94%
COLO 205
  Growth Percent: 71.04%
UACC-257
  Growth Percent: 55.20%
HCC-2998
  Growth Percent: 98.28%
NCl-H460
  Growth Percent: −16.59%
IGROV 1
  Growth Percent: 13.32%
SNB-75
  Growth Percent: 20.69%
